Measurements published in patent publication US6458748B1, “Di- or tri-fluoromethanesulfonyl anilide derivatives, process for the preparation of them and herbicides containing them as the active ingredient” (Ihara Chemical Industry Co., Ltd., priority 1998, dated 2002).

Assays:
[1] = tested on: Sagittaria pygmaea Miq.; experiment: Test 4 paddy pot herbicidal effect; settings: applied next day, 28th day from application
[2] = tested on: Cyperus serotinus Rottb.; experiment: Test 4 paddy pot herbicidal effect; settings: applied next day, 28th day from application
[3] = tested on: Echinochloa oryzicola vasing.; experiment: Test 4 paddy pot herbicidal effect; settings: applied next day, 28th day from application
[4] = tested on: Echinochloa oryzicola vasing.; experiment: Test 1 paddy pot herbicidal effect, water surface application; format: in vivo; settings: applied day after sowing, evaluated 28 days later
Source text: (§1) Standard of herbicidal effect (level of suppression of development and growth) […] Herbicidal effect of 90% or more, injury to paddy rice […] Herbicidal effect of 70% or more to less than 90%, injury to paddy rice […] 2: […]

[5] = tested on: Monochoria vaginalis (Burm. f.) Presl var. plantaginea (Roxb.) Solms-Laub.; experiment: as above; format: in vivo; settings: applied day after sowing, evaluated 28 days later
Source text: as §1

[6] = tested on: Echindchloa oryzicola Vasing. (Ec); experiment: Test 5 herbicidal effect by application stage; settings: 28th day from application

Substance: 2-[(4,6-dimethoxypyrimidine-2-yl)hydroxymethyl]-6-methoxymethyltrifluoromethanesulfonyl anilide [Example 4]
- Herbicidal effect Sa ([1]; 0.6 g/10 ares): 4 (Herbicidal effect of 70% or more to less than 90%, injury to paddy rice)
- Herbicidal effect Sa ([1]; 1.3 g/10 ares): 5 (Herbicidal effect of 90% or more, injury to paddy rice)
- Herbicidal effect Sa ([1]; 2.5 g/10 ares): 5 (Herbicidal effect of 90% or more, injury to paddy rice)
- Herbicidal effect Sa ([1]; 5.0 g/10 ares): 5 (Herbicidal effect of 90% or more, injury to paddy rice)
- Herbicidal effect Cy ([2]; 0.6 g/10 ares): 4 (Herbicidal effect of 70% or more to less than 90%, injury to paddy rice)
- Herbicidal effect Cy ([2]; 1.3 g/10 ares): 5 (Herbicidal effect of 90% or more, injury to paddy rice)
- Herbicidal effect Cy ([2]; 2.5 g/10 ares): 5 (Herbicidal effect of 90% or more, injury to paddy rice)
- Herbicidal effect Cy ([2]; 5.0 g/10 ares): 5 (Herbicidal effect of 90% or more, injury to paddy rice)
- Herbicidal effect Ec ([3]; 0.6 g/10 ares): 2 (Herbicidal effect of 30% or more to less than 50%, injury to paddy rice)
- Herbicidal effect Ec ([3]; 1.3 g/10 ares): 4 (Herbicidal effect of 70% or more to less than 90%, injury to paddy rice)
- Herbicidal effect Ec ([3]; 2.5 g/10 ares): 5 (Herbicidal effect of 90% or more, injury to paddy rice)
- Herbicidal effect Ec ([3]; 5.0 g/10 ares): 5 (Herbicidal effect of 90% or more, injury to paddy rice)
- Herbicidal effect Ec ([4]; 0.4 g/10 ares): 2 (Herbicidal effect of 30% or more to less than 50%, injury to paddy rice)
- Herbicidal effect Ec ([4]; 1.6 g/10 ares): 5 (Herbicidal effect of 90% or more, injury to paddy rice)
- Herbicidal effect Ec ([4]; 6.3 g/10 ares): 5 (Herbicidal effect of 90% or more, injury to paddy rice)
- Herbicidal effect Ec ([4]; 25.0 g/10 ares): 5 (Herbicidal effect of 90% or more, injury to paddy rice)
- Herbicidal effect Mo ([5]; 0.4 g/10 ares): 3 (Herbicidal effect of 50% or more to less than 70%, injury to paddy rice)
- Herbicidal effect Mo ([5]; 1.6 g/10 ares): 5 (Herbicidal effect of 90% or more, injury to paddy rice)
- Herbicidal effect Mo ([5]; 6.3 g/10 ares): 5 (Herbicidal effect of 90% or more, injury to paddy rice)
- Herbicidal effect Mo ([5]; 25.0 g/10 ares): 5 (Herbicidal effect of 90% or more, injury to paddy rice)
- Herbicidal effect (Ec) Application stage 1-leaf ([6]; 1.3 g/10 ares): 4 (Herbicidal effect of 70% or more to less than 90%, injury to paddy rice)
- Herbicidal effect (Ec) Application stage 2-leaf ([6]; 1.3 g/10 ares): 3 (Herbicidal effect of 50% or more to less than 70%, injury to paddy rice)
- Herbicidal effect (Ec) Application stage 3-leaf ([6]; 1.3 g/10 ares): 3 (Herbicidal effect of 50% or more to less than 70%, injury to paddy rice)
- Herbicidal effect (Ec) Application stage 1-leaf ([6]; 2.5 g/10 ares): 5 (Herbicidal effect of 90% or more, injury to paddy rice)
- Herbicidal effect (Ec) Application stage 2-leaf ([6]; 2.5 g/10 ares): 5 (Herbicidal effect of 90% or more, injury to paddy rice)
- Herbicidal effect (Ec) Application stage 3-leaf ([6]; 2.5 g/10 ares): 5 (Herbicidal effect of 90% or more, injury to paddy rice)
- Herbicidal effect (Ec) Application stage 1-leaf ([6]; 5.0 g/10 ares): 5 (Herbicidal effect of 90% or more, injury to paddy rice)
- Herbicidal effect (Ec) Application stage 2-leaf ([6]; 5.0 g/10 ares): 5 (Herbicidal effect of 90% or more, injury to paddy rice)
- Herbicidal effect (Ec) Application stage 3-leaf ([6]; 5.0 g/10 ares): 5 (Herbicidal effect of 90% or more, injury to paddy rice)
